Consider four compounds from patent publication US8981112B2, “Inhibitors of β-secretase” (Boehringer Ingelheim International GmbH, priority 2012, dated 2015).

In data set [1] the test system is brain amyloid peptides Aβ1-x. The data set can be described thus: Rat Brain Aβ Lowering Assay (Assay 5). The conditions noted are these: 3 hrs after dosing. The data set is classed as in vivo. The protocol:
Rat Brain Aβ Lowering Assay (Assay 5)
The animals were sacrificed 3 hrs after dosing, and brains were excised, dissected into cerebellum and left and right cerebra and flash-frozen in liquid nitrogen.
The cerebrum was homogenized (5 volumes per weight) in 20 mM Tris-HCL, pH 8.5, 0.2% Triton-X100 supplemented with protease inhibitors (complete, Roche Applied Science) at 4° C. using a glass Dounce homogenizer. The homogenate was centrifuged at 120,000×g for 60 min at 4° C., and the supernatant was collected and analyzed for Ab1-x using immunoassay with chemiluminescent detection (Meso-Scale Discovery, Rockville, Md. (MSD)).
Streptavidin 96-well plates (MSD) were pre-blocked with 5% Blocker A solution (MSD) for 1 hr at rt on an orbital shaker and washed 4 times with phosphate buffered saline (PBS). The wells were pre-coated with 20 ng/well of biotinylated antibody SIG-39155 (Clone M3.2, specific for amino acids 10-15 of the rodent Aβ) for 1 hr at rt and washed 4 times with PBS. For Aβ1-x analysis, 25 μl of either the cleared brain lysates or Aβ1-40 standards (8-500 pg/ml, with 2× increment) were incubated for 1 hr at rt with constant shaking. The wells were washed 4 times with PBS, and 25 μl of the detection antibody (Sulfo-TAG labeled anti-Aβ40 antibody supplied by MSD) was added and incubated for 1 hr at rt. After 4 washes with PBS, 150 μl of the chemiluminescence detection reagent (Read Buffer T, MSD) was added, and the plate was read on an MSD Sector Imager 6000 instrument. The calibration curve was fit into a non-linear four-parameter regression model, and the Aβ1-x concentrations were calculated for each well containing the cleared brain lysates. The percent of Aβ lowering was calculated based on the difference with the average Aβ concentration obtained for the brains from the animals treated with vehicle alone.

A further data set deals with hERG (Homo sapiens (Human), UniProt Q12809). The data set can be described thus: hERG-Channel Assay (Assay 3), whole-cell patch clamp. The data set is classed as cell-based. The conditions noted are these: human, HEK293 cells stably transfected with hERG, pH 7.4; 10 μM, HEK293 cells transfected with hERG. The text has this: hERG-Channel Assay (Assay 3)
Chain of hERG (Q12809 whole entry): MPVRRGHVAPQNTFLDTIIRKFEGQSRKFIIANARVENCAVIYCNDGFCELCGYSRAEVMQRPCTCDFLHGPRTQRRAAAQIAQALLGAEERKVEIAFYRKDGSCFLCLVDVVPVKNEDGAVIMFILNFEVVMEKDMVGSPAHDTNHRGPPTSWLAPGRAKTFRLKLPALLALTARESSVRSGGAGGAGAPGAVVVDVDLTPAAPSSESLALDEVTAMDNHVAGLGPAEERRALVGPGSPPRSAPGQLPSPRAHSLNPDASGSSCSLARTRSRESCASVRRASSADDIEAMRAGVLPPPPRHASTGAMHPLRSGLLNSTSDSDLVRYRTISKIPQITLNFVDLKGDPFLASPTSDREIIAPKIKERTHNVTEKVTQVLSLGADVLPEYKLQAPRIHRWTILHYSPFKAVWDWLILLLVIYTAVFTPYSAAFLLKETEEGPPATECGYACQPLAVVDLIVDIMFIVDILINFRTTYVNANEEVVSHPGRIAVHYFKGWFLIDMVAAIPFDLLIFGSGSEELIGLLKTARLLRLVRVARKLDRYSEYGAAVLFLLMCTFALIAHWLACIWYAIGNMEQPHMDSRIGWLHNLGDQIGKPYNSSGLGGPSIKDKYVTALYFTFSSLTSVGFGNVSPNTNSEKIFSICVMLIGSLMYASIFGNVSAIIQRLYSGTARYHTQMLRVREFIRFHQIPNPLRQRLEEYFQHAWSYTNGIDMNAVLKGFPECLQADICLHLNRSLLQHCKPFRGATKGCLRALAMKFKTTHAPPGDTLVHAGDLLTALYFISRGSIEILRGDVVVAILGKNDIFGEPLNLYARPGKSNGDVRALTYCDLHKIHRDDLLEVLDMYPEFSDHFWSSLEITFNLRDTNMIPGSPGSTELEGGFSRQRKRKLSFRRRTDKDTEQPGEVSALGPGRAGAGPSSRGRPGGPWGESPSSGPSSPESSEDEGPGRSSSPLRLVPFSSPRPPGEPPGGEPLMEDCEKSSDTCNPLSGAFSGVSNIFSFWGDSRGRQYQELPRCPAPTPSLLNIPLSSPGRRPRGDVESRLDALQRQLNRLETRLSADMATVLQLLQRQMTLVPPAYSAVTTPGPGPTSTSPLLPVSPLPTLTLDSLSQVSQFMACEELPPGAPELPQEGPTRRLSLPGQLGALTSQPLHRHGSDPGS
HEK (human embryonic kidney) 293 cells were stably transfected with hERG cDNA.
Cells were superfused with a bath solution containing (mM): NaCl (137), KCl (4.0), MgCl2 (1.0), CaCl2 (1.8), Glucose (10), HEPES (10), pH 7.4 with NaOH. Patch pipettes were made from borosilicate glass tubing using a horizontal puller and filled with pipette solution containing (mM): K-aspartate (130), MgCl2 (5.0), EGTA (5.0), K2ATP (4.0), HEPES (10.0), pH 7.2 with KOH. Resistance of the microelectrodes was in the range between 2 and 5 MΩ.
Membrane currents were recorded using an EPC-10 patch clamp amplifier and PatchMaster software. hERG-mediated membrane currents were recorded at 35° C., using the whole-cell configuration of the patch-clamp technique. Transfected HEK293 cells were clamped at a holding potential of −60 mV and hERG-mediated inactivating tail currents were elicited using a pulse pattern with fixed amplitudes (activation/inactivation: 40 mV for 2000 ms; recovery: −120 mV for 2 ms; ramp to 40 mV in 2 ms; inactivating tail current: 40 mV for 50 ms) repeated at 15 s intervals. During each inter-pulse interval 4 pulses scaled down by a factor of 0.2 were recorded for a P/n leak subtraction procedure. Rs compensation was employed up to a level that safely allowed recording devoid of ringing.
The different concentrations of the test compound were applied sequentially on each of the different cells investigated. A steady state level of baseline current was measured for at least 6 sweeps prior to the application of the first test compound concentration.
The test compound was dissolved in DMSO to yield a master stock solution which was diluted further in DMSO to stock solutions needed for the lower concentrations. Final dilutions in extracellular buffer were prepared freshly from these stocks by a 1:1000 dilution step each before starting the experiments.
Peak current amplitudes were measured 3 ms after the ramp to +40 mV. For baseline and each concentration the peak currents of the three last sweeps before application of the next concentration were averaged. Residual currents (I/I0) were calculated for each cell as the fraction of actual average peak current and average baseline peak current. Results are presented as percent (%) inhibition (1−I/I0)*100% at 10 μM.

Data set [2] deals with production of Abeta1-x peptides in H4 neuroglioma cell line stably expressing human APP. Description: H4-APPwt Cell-Based Assay (Assay 2), Abeta1-x production. To be noted: H4 neuroglioma cells expressing human APP, Abeta1-x; read-out: H4-APPwt cell IC50 nM (assay 2). On the procedure:
H4-APPwt Cell-Based Assay (Assay 2)
Cellular potency of the compounds of the invention was assessed in an assay monitoring production of Abeta1-x peptides in the H4 neuroglioma cell line (ATCC, Cat. #HTB-148) stably expressing human APP, using an immunoassay such as AlphaLISA (PerkinElmer, Cat.# AL288). Tested compounds were dissolved in DMSO and pre-diluted in the culture medium (DMEM containing 10% FBS and 1% penicillin/streptomycin) to achieve twice the final concentration of the compounds in the assay. Equal volumes of the 2× solutions of the tested compounds and cell suspension were added to a 96-well culture plate, so that each well contained ˜10,000 cells in a final volume of 200 μl. Final concentration of DMSO in the assay was 0.2%. The plates were incubated for 5 hrs at 37° C., 5% CO2 to allow cells to attach to the bottom of the wells in the presence of the tested compounds. Then the media was removed and replaced with fresh media containing tested compounds at the same final concentration. The plates were incubated for 18 hrs at 37° C., 5% CO2. Concentrations of Ab1-x were determined using AlphaLISA immunoassay (PerkinElmer, Cat.# AL288) following manufacturer's protocol. Concentrations of Abeta1-x in the wells containing either DMSO or 10 μM beta-secretase inhibitor (BACE inhibitor IV, EMD Bioscience, Cat. #565788) were used as uninhibited and background controls, correspondingly, for calculating percent inhibition values for each well with the tested compounds.

Data set [3] in a line: In Vitro Phospholipidosis Assay (Assay 4), Nile red staining. The class given is cell-based. To be noted: human, first effect concentration, U937 cells, read-out: Phospholipidosis FEC IC50 μM (assay 4). On the procedure: In Vitro Phospholipidosis Assay (Assay 4)
The phospholipidogenic potential of test compounds was assayed using the human hematopoetic U937 cell line. The test principle was to analyze the phospholipid content by staining the cells with the fluorescent dye Nile red.
U937 cells were seeded into cell culture plates at 0.5×10^6 cells/mL in RPMI medium containing 10% FBS, 1% DMSO, and 0.005% gentamicin. The cells were then cultivated with or without different concentrations of test compounds for 48 h under standard culture conditions.
For harvesting the cells were centrifuged at 130×g for 4 min and washed once with PBS. Then 2×0.5 mL cell suspension was prepared for non-fixed cell measurement (0.5 mL for propidium iodide (PI) viability measurement and 0.5 mL for Nile red measurement).
The remaining cells were fixed with 3.7% formaldehyde for 30 min. After a further centrifugation step cells were resuspended with 1.3 mL Nile red working solution (1 μg/mL) and incubated for 5 min at rt. The cell suspension was then washed twice with 3 mL PBS and centrifuged with 130×g for 4 min. The supernatant was discarded and the cells were resuspended with 0.5 mL PBS and kept for flow cytometry measurement. For Nile red staining of the 0.5 mL non-fixed cell samples, 50 μL of a ready to use Nile red solution (10 μg/mL) were added per sample. Samples were kept on ice for 5 min. Thereafter, they were washed once with 4 mL PBS (4° C., 250×g for 8 min) and finally resuspended in 400 μL PBS and kept for flow cytometry measurement.
For the viability measurement, 12.5 μL of the ready to use PI solution (10 μg/mL) were added to the 0.5 mL non-fixed cell suspension. After 15 min of incubation on ice, the samples were measured by flow cytometry using a Coulter Epics XL/MCL flow cytometer.
The viability of the cells of each sample was determined by flow cytometry measurement of the PI content at channel 2 (568-590 nm). Cut-off gates for the fluorescence-dependent differentiation between live and dead cells were defined based on the analysis of cell culture medium control samples.
Only samples with a cell viability of >=90% relative to control samples were analyzed for phospholipidosis. For that, each Nile red sample (non-fixed and fixed samples) was measured by flow cytometry at channel 1 (504-541 nm) and channel 4 (660-680 nm).
For each channel, relative Nile red fluorescence intensity of a test sample was calculated compared to control samples and expressed as percentage of control fluorescence intensity. The assessment of the phospholipidogenic potential and the first effect concentration (FEC) of a test compound was done manually based on the fluorescence intensities at both wavelengths for the fixed cells as well as for the non-fixed cells.

Take `CO[C@H]1CC[C@@]2(Cc3ccc(C#N)cc3[C@]23N=C(N)N(Cc2ncccn2)C3=O)C[C@@H]1C` [Example 6]: in data set [1] (single oral dose 50 mg/kg), the “% Aβ Reduction” value is on record as 60%. Besides, the inhibition (in general, the percentage by which the read-out fell short of the control) at 10 µM against hERG was determined as 35%. Further, in data set [2], the IC50 (usually the concentration that gives 50% inhibition) came out at 1.24 nM. Besides, the IC50 at 48 h in data set [3] worked out at 200 µM.

Take `CC[C@@H]1C[C@]2(CC[C@H]1OC)Cc1ccc(C#N)cc1[C@]21N=C(N)N(C[C@H]2COCCO2)C1=O` [Example 28]: the “% Aβ Reduction” value in data set [1] (single oral dose 12.5 mg/kg) was determined as 30%. Besides, the inhibition at 10 µM against hERG came out at 9%. Besides, the IC50 in data set [2] was found to be 0.5 nM. The IC50 at 48 h in data set [3] stood at 400 µM.

For `CO[C@H]1[C@H](C)C[C@@]2(Cc3ccc(F)cc3[C@]23N=C(N)N(CC2(C)OCCO2)C3=O)C[C@@H]1C` [Example 29], the “% Aβ Reduction” value in data set [1] (single oral dose 25 mg/kg) stood at 78%. Further, 10 µM produced 7% inhibition on hERG. Further, in data set [2], the IC50 turned out to be 0.3 nM. In data set [3], the IC50 at 48 h is 200 µM.

For `CO[C@H]1[C@H](C)C[C@@]2(Cc3ccc(C#N)cc3[C@]23N=C(N)N(CC2(C)OCCO2)C3=O)C[C@@H]1C` [Example 20], in data set [1] (single oral dose 25 mg/kg), the “% Aβ Reduction” value is 73%. At hERG, this compound displayed an inhibition at 10 µM of 8%. Also, the IC50 in data set [2] was found to be 0.28 nM. The IC50 at 48 h in data set [3] is more than 400 µM.
